Four compounds from patent publication US9980943B2, “Methods of treating muscular dystrophy” (BOARD OF REGENTS OF THE NEVADA SYSTEM OF HIGHER EDUCATION, …, priority 2013, dated 2018) can be followed below.

Holding throughout (assay type): cell-based, mouse
Assay [1] relates to α7 integrin (LacZ reporter in α7βgal+/− myoblasts). Nature of the assay: Myoblast α7+/LacZ integrin FDG assay (Burkin assay in myoblasts, 96-well). Conditions: α7+/LacZ myoblasts, 96-well.
The subject of assay [2] is β-galactosidase in CMV-LacZ C2C12 myotubes. Kind of assay: CMV-LacZ secondary screen in C2C12 myotubes (β-Gal stabilizing assay). The note with it: C2C12 CMV-LacZ myotubes, fold relative to DMSO. Summed up:
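First, C2C12 myoblasts were transfected with a linearized CMV-LACZ vector and clonal lines selected by FDG β-gal assay. Then cells were exposed to compounds at 0.5, 1, 5, 10, 20 and 40 μM in 96-well format, two replicates each, and β-gal measured.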

The test system of assay [3] is β-galactosidase in CMV-LacZ C2C12 myoblasts. Nature of the assay: CMV-LacZ secondary screen in C2C12 myoblasts (β-Gal stabilizing assay). Conditions: CMV-LacZ C2C12 myoblasts. Summed up:
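C2C12 myoblasts stably carrying a linearized CMV-driven LacZ construct, clone chosen by β-gal level in the myoblast FDG assay. Compounds tested in 96-well dose-response at 0.5, 1, 5, 10, 20 and 40 μM, N=2 replicates per point, to detect β-gal stabilization.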

For assay [4], the system named is α7 integrin (LacZ reporter in α7+/LacZ myotubes). Kind of assay: Myotube α7 integrin FDG assay (Burkin assay in myotubes, 96-well). Conditions: myotubes.

`O=S(=O)(NC(=NC1CCCCC1)c1ccccc1F)c1ccccc1` [MLS000947910-01]: the “Burkin Assay in Myoblasts, signal relative to DMSO” value stood at 1.024 in assay [1] (0.5 uM); 1.188 in assay [1] (1 uM); 1.033 in assay [1] (5 uM); 1.0429 in assay [1] (10 uM); 1.047 in assay [1] (20 uM); 1.018 in assay [1] (40 uM). Moreover, the “CMV-LACZ in Myotubes, signal relative to DMSO” value was found to be 1.0333 in assay [2] (0.5 uM); 0.8348 in assay [2] (1 uM); 1.2332 in assay [2] (5 uM); 0.8930 in assay [2] (10 uM); 1.0165 in assay [2] (20 uM); 1.0082 in assay [2] (40 uM). For the same compound, the “CMV-LACZ in Myoblasts (β-galactosidase activity relative to DMSO)” value in assay [3] (0.5 uM) worked out at 1.0094; in assay [3] (1 uM) it was 0.9250; in assay [3] (5 uM), 0.9452; in assay [3] (10 uM), 1.0379; in assay [3] (20 uM), 1.0870; in assay [3] (40 uM) it was 1.0500. Besides, the “Burkin Assay in Myotubes, α7 integrin LacZ reporter signal relative to DMSO” value is recorded as 1.134 in assay [4] (0.5 uM); 1.101 in assay [4] (1 uM); 1 in assay [4] (5 uM); 1.035 in assay [4] (10 uM); 0.9628 in assay [4] (20 uM); 0.9515 in assay [4] (40 uM).

Regarding `CCOc1ccc(Br)cc1S(=O)(=O)Nc1ccc(C(=O)Nc2ccccc2OC)cc1` [MLS000418650-01], the “Burkin Assay in Myoblasts, signal relative to DMSO” value in assay [1] (0.5 uM) was 0.9156; in assay [1] (1 uM), 1.069; in assay [1] (5 uM) it was 1.13; in assay [1] (10 uM), 0.9633; in assay [1] (20 uM), 0.9104; in assay [1] (40 uM), 0.9445. The “CMV-LACZ in Myotubes, signal relative to DMSO” value amounted to 1.0086 in assay [2] (0.5 uM); 1.2819 in assay [2] (1 uM); 1.0198 in assay [2] (5 uM); 1.1746 in assay [2] (10 uM); 1.1180 in assay [2] (20 uM); 1.2260 in assay [2] (40 uM). Also, the “CMV-LACZ in Myoblasts (β-galactosidase activity relative to DMSO)” value came out at 0.9237 in assay [3] (0.5 uM); 0.9533 in assay [3] (1 uM); 1.0080 in assay [3] (5 uM); 0.8344 in assay [3] (10 uM); 1.1523 in assay [3] (20 uM); 1.1323 in assay [3] (40 uM). For the same compound, the “Burkin Assay in Myotubes, α7 integrin LacZ reporter signal relative to DMSO” value in assay [4] (0.5 uM) was determined as 1.086; in assay [4] (1 uM), 1.004; in assay [4] (5 uM) it was 1.032; in assay [4] (10 uM), 0.9654; in assay [4] (20 uM) it was 0.7581; in assay [4] (40 uM), 0.7593.

`CC(C)(C)Nc1nc(-c2ccc3c(c2)CCN3C(=O)C2CC2)cs1` [MLS001216939-01]: the “Burkin Assay in Myoblasts, signal relative to DMSO” value in assay [1] (0.5 uM) amounted to 1.123; in assay [1] (1 uM), 1.2827; in assay [1] (5 uM), 1.111; in assay [1] (10 uM), 0.9828; in assay [1] (20 uM), 0.8633; in assay [1] (40 uM) it was 0.7865. The “CMV-LACZ in Myotubes, signal relative to DMSO” value in assay [2] (0.5 uM) is 1.0311; in assay [2] (1 uM), 0.9748; in assay [2] (5 uM), 1.1826; in assay [2] (10 uM), 1.2568; in assay [2] (20 uM) it was 1.1518; in assay [2] (40 uM) it was 0.9659. Further, the “CMV-LACZ in Myoblasts (β-galactosidase activity relative to DMSO)” value in assay [3] (0.5 uM) came to 1.0991; in assay [3] (1 uM), 1.1134; in assay [3] (5 uM), 1.0913; in assay [3] (10 uM) it was 0.9452; in assay [3] (20 uM), 1.1863; in assay [3] (40 uM), 1.0644. For the same compound, the “Burkin Assay in Myotubes, α7 integrin LacZ reporter signal relative to DMSO” value amounted to 1.193 in assay [4] (0.5 uM); 1.185 in assay [4] (1 uM); 1.07 in assay [4] (5 uM); 1.06 in assay [4] (10 uM); 0.8529 in assay [4] (20 uM); 0.4743 in assay [4] (40 uM).

For the compound `O=C(O)CC1(c2ccccc2)C(=O)c2ccccc2C1=O` [MLS000052969-01], the “Burkin Assay in Myoblasts, signal relative to DMSO” value in assay [1] (0.5 uM) turned out to be 1.25; in assay [1] (1 uM), 1.352; in assay [1] (5 uM) it was 0.9646; in assay [1] (10 uM) it was 0.8356; in assay [1] (20 uM), 0.8292; in assay [1] (40 uM), 0.7591. In addition, the “CMV-LACZ in Myotubes, signal relative to DMSO” value in assay [2] (0.5 uM) was 0.9152; in assay [2] (1 uM), 1.1714; in assay [2] (5 uM), 1.0651; in assay [2] (10 uM), 0.8406; in assay [2] (20 uM), 0.9800; in assay [2] (40 uM), 0.9726. Besides, the “CMV-LACZ in Myoblasts (β-galactosidase activity relative to DMSO)” value in assay [3] (0.5 uM) came to 0.8950; in assay [3] (1 uM), 1.0529; in assay [3] (5 uM) it was 0.9976; in assay [3] (10 uM), 1.0444; in assay [3] (20 uM) it was 1.1522; in assay [3] (40 uM) it was 0.6800. In addition, the “Burkin Assay in Myotubes, α7 integrin LacZ reporter signal relative to DMSO” value in assay [4] (0.5 uM) is on record as 0.9131; in assay [4] (1 uM), 1.058; in assay [4] (5 uM), 0.9184; in assay [4] (10 uM) it was 0.876; in assay [4] (20 uM) it was 0.6621; in assay [4] (40 uM), 0.5548.
